# Test results: ChEMBL document CHEMBL1201862, “PubChem BioAssay data set” (2004)
#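 48-hour exposure; five concentrations; linearly interpolated endpoints. Abbreviation: GI50, concentration required for 50% inhibition of growth.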 The source made the active and inactive calls. Cut-off read from the data, not from the text of the source: active = GI50 up to about 1.1 µM and inactive = higher.
# Tests used:
# Test in all cases: inhibition of tumour cell growth, NCI panel, 48 h
# [1] = system: A549
# [2] = system: HCT-116
# [3] = system: HOP-62
# [4] = system: HOP-92
# [5] = system: HT-29
# [6] = system: K562
# [7] = system: LOX IMVI
# [8] = system: NCI-H226
# [9] = system: NCI-H522
# [10] = system: PC-3
# [11] = system: RXF 393
# [12] = system: SF-268
# [13] = system: SK-MEL-28
# [14] = system: SN12C
# [15] = system: SW-620
# [16] = system: T47D
# [17] = system: UO-31
Structure (SMILES),GI50 [1],GI50 [2],GI50 [3],GI50 [4],GI50 [5],GI50 [6],GI50 [7],GI50 [8],GI50 [9],GI50 [10],GI50 [11],GI50 [12],GI50 [13],GI50 [14],GI50 [15],GI50 [16],GI50 [17]
CNCCCNC(=S)Cn1cc(C)c(=O)[nH]c1=O,> 29.9 µM (inactive),> 33.8 µM (inactive),> 54.3 µM (inactive),34.4 µM (inactive),> 35.9 µM (inactive),> 42.2 µM (inactive),> 34.2 µM (inactive),> 59 µM (inactive),> 53.6 µM (inactive),> 45.5 µM (inactive),> 60.3 µM (inactive),> 39.1 µM (inactive),> 56.9 µM (inactive),> 100 µM (inactive),> 56.4 µM (inactive),> 100 µM (inactive),> 48 µM (inactive)
CCOP(=O)(O)C1C(CO)OC(n2ccc(=O)[nH]c2=O)C1O (centres undefined),> 100 µM (inactive),> 100 µM (inactive),> 100 µM (inactive),> 100 µM (inactive),> 100 µM (inactive),> 100 µM (inactive),> 100 µM (inactive),> 100 µM (inactive),> 100 µM (inactive),> 100 µM (inactive),> 100 µM (inactive),> 100 µM (inactive),> 100 µM (inactive),> 100 µM (inactive),> 100 µM (inactive),> 100 µM (inactive),> 100 µM (inactive)
CCC(=O)NI1OC(=O)c2ccccc21,> 100 µM (inactive),> 100 µM (inactive),> 100 µM (inactive),> 100 µM (inactive),> 100 µM (inactive),48.5 µM (inactive),> 100 µM (inactive),> 100 µM (inactive),15.9 µM (inactive),> 100 µM (inactive),> 100 µM (inactive),> 100 µM (inactive),> 100 µM (inactive),> 100 µM (inactive),> 100 µM (inactive),> 100 µM (inactive),> 100 µM (inactive)
N#Cc1c2c(c(Nc3ccc(F)cc3)n3c1nc1ccccc13)CCC2,5.93 µM (inactive),1.76 µM (inactive),3.03 µM (inactive),6.37 µM (inactive),1.87 µM (inactive),9.44 µM (inactive),2.13 µM (inactive),6.81 µM (inactive),2.2 µM (inactive),5.14 µM (inactive),2.14 µM (inactive),3.55 µM (inactive),9.27 µM (inactive),2.1 µM (inactive),2.43 µM (inactive),7.8 µM (inactive),2.45 µM (inactive)
N#Cc1c(-c2ccc([N+](=O)[O-])cc2)cc(-c2ccc(Nc3ccnc4cc(C(F)(F)F)ccc34)cc2)nc1N,13 µM (inactive),6.92 µM (inactive),21.3 µM (inactive),20.8 µM (inactive),5.13 µM (inactive),3.64 µM (inactive),3.64 µM (inactive),> 48.3 µM (inactive),17.2 µM (inactive),18.9 µM (inactive),19.1 µM (inactive),33 µM (inactive),25.5 µM (inactive),17.9 µM (inactive),8.3 µM (inactive),7.89 µM (inactive),14.7 µM (inactive)
O=C1N/C(=N/N=C/c2ccccc2)N/C1=C\c1c[nH]c2ccccc12,28 µM (inactive),> 100 µM (inactive),61.4 µM (inactive),> 100 µM (inactive),> 100 µM (inactive),47.1 µM (inactive),44.1 µM (inactive),72.6 µM (inactive),74.3 µM (inactive),22.6 µM (inactive),> 100 µM (inactive),56.6 µM (inactive),> 100 µM (inactive),29.2 µM (inactive),64.4 µM (inactive),> 100 µM (inactive),71.6 µM (inactive)
c1ccc2c(Cc3c[nH]c4ccccc34)c[nH]c2c1 [ARUNDINE],20.8 µM (inactive),17.1 µM (inactive),17.7 µM (inactive),16 µM (inactive),15.2 µM (inactive),19.6 µM (inactive),20.3 µM (inactive),2.14 µM (inactive),30.5 µM (inactive),18.2 µM (inactive),15.6 µM (inactive),28.1 µM (inactive),36 µM (inactive),16.6 µM (inactive),20.1 µM (inactive),15.8 µM (inactive),14.1 µM (inactive)
CC12CC(=O)C3C(CCC4=CC(=O)CCC43C)C1CC=C2CC(=O)O (centres undefined),> 100 µM (inactive),> 100 µM (inactive),> 100 µM (inactive),> 100 µM (inactive),> 100 µM (inactive),> 100 µM (inactive),> 100 µM (inactive),> 100 µM (inactive),> 100 µM (inactive),> 100 µM (inactive),> 100 µM (inactive),> 100 µM (inactive),> 100 µM (inactive),> 100 µM (inactive),> 100 µM (inactive),> 100 µM (inactive),> 100 µM (inactive)
CCOC(=O)/C(=C\c1cccc(C)c1)C(C)=O,30 µM (inactive),16.7 µM (inactive),24.5 µM (inactive),6.7 µM (inactive),17.9 µM (inactive),28.4 µM (inactive),13.6 µM (inactive),24.9 µM (inactive),10 µM (inactive),10.5 µM (inactive),11.5 µM (inactive),15.2 µM (inactive),12.6 µM (inactive),17.1 µM (inactive),12.5 µM (inactive),11.1 µM (inactive),13.8 µM (inactive)
O=[N+]([O-])/C=C/c1ccc2ccccc2c1,8.05 µM (inactive),2.73 µM (inactive),5.53 µM (inactive),6.62 µM (inactive),2.53 µM (inactive),3.78 µM (inactive),1.87 µM (inactive),7.89 µM (inactive),9.68 µM (inactive),6.49 µM (inactive),2.49 µM (inactive),4.57 µM (inactive),2.23 µM (inactive),5.64 µM (inactive),2.47 µM (inactive),0.692 µM (active),7.41 µM (inactive)
CC(=O)OC1CC[C@@]2(C)C(=CC[C@@H]3[C@@H]2CC[C@]2(C)Nc4c(cnn4-c4ccc(F)cc4)C[C@@H]32)C1 (some centres undefined),24.3 µM (inactive),7.4 µM (inactive),5.5 µM (inactive),53.5 µM (inactive),13.2 µM (inactive),21.4 µM (inactive),7.85 µM (inactive),59.7 µM (inactive),68.4 µM (inactive),23.1 µM (inactive),2.64 µM (inactive),39.4 µM (inactive),15.1 µM (inactive),> 100 µM (inactive),22.9 µM (inactive),14.9 µM (inactive),12.6 µM (inactive)
CCCCC1c2c([nH]c3ccccc23)C2C(=O)N(c3ccc(OC)cc3)C(=O)C2C1CCC (centres undefined),5.13 µM (inactive),3.01 µM (inactive),3.69 µM (inactive),3.03 µM (inactive),3.13 µM (inactive),3.29 µM (inactive),> 10 µM (inactive),5.02 µM (inactive),6.28 µM (inactive),2.6 µM (inactive),3.39 µM (inactive),4.35 µM (inactive),5.4 µM (inactive),2.18 µM (inactive),3.95 µM (inactive),> 10 µM (inactive),4.45 µM (inactive)
